Test results published in ChEMBL document CHEMBL4152371, “A truncated RHAMM protein for discovering novel therapeutic peptides” (Bioorg Med Chem, 2018).
Calls of active or inactive are those of the source. The calls are words filed in the database; no cut-off is given here.

What was measured:
[1] = molecular target: T1, Hyaluronan mediated motility receptor (Homo sapiens) (UniProt O75330); assay: Inhibition of C-terminal His-tagged 7 kDa RHAMM (unknown origin) binding to HA at 1 to 1000 nM after 240 secs by SPR method
T1 sequence (whole entry): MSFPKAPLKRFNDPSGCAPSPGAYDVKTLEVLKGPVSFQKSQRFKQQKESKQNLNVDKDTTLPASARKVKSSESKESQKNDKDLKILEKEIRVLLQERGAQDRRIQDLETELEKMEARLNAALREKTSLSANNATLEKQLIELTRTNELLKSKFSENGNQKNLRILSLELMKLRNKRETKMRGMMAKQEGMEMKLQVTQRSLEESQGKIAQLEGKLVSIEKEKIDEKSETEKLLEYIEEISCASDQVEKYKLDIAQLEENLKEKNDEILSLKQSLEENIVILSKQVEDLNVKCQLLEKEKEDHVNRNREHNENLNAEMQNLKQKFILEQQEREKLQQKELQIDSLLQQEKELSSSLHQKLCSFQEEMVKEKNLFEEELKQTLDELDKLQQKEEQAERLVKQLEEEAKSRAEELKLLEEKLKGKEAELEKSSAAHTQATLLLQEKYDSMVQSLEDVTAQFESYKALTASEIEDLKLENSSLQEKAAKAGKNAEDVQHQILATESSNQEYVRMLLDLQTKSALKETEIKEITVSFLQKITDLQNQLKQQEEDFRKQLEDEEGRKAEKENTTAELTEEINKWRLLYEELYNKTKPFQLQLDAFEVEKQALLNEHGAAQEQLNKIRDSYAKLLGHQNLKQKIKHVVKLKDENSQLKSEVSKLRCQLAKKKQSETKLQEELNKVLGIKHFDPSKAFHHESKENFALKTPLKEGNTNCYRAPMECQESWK

[2] = molecular target: T1, Hyaluronan mediated motility receptor (Homo sapiens); assay: Inhibition of C-terminal His-tagged 7 kDa RHAMM (unknown origin) binding to HA assessed as association constant at 100 nM after 240 secs by SPR method
[3] = molecular target: T1, Hyaluronan mediated motility receptor (Homo sapiens); assay: Inhibition of C-terminal His-tagged 7 kDa RHAMM (unknown origin) binding to HA assessed as association constant at 500 nM after 240 secs by SPR method
[4] = molecular target: T1, Hyaluronan mediated motility receptor (Homo sapiens); assay: Inhibition of C-terminal His-tagged 7 kDa RHAMM (unknown origin) binding to HA assessed as association constant at 1 nM after 240 secs by SPR method
[5] = molecular target: T1, Hyaluronan mediated motility receptor (Homo sapiens); assay: Inhibition of C-terminal His-tagged 7 kDa RHAMM (unknown origin) binding to HA assessed as association constant at 1000 nM after 240 secs by SPR method
[6] = molecular target: T1, Hyaluronan mediated motility receptor (Homo sapiens); assay: Inhibition of C-terminal His-tagged 7 kDa RHAMM (unknown origin) binding to HA assessed as association constant at 10 nM after 240 secs by SPR method
[7] = molecular target: T2, Hyaluronan mediated motility receptor (Homo sapiens, UniProt O75330); assay: Inhibition of recombinant RHAMM (unknown origin) binding to HA after 240 secs by SPR method
T2 sequence (O75330 whole entry): T1 sequence (whole entry)

[8] = molecular target: T1, Hyaluronan mediated motility receptor (Homo sapiens); assay: Inhibition of C-terminal His-tagged 7 kDa RHAMM (unknown origin) binding to HA assessed as association constant at 750 nM after 240 secs by SPR method
[9] = molecular target: T2, Hyaluronan mediated motility receptor; assay: Inhibition of C-terminal His-tagged 7 kDa RHAMM (unknown origin) binding to HA after 240 secs by SPR method

H-GEFSEAREDMAA-NH2
inhibition [1]: inactive

H-EEDFGEEAEEEA-NH2
K [2]: 1.4 ×10⁴ /M.s
K [3]: 3 ×10⁴ /M.s
K [4]: 5.7 ×10⁴ /M.s
K [5]: 4 ×10⁴ /M.s
K [6]: 2.3 ×10⁴ /M.s
Kd [7]: 32.6 nM
K [8]: 3.3 ×10⁴ /M.s
Kd [9]: 202 nM

H-FTEAESNMNDLV-NH2
K [2]: 0.1 ×10⁴ /M.s
K [3]: 4.9 ×10⁴ /M.s
K [4]: 0.8 ×10⁴ /M.s
K [5]: 2 ×10⁴ /M.s
K [6]: 0.5 ×10⁴ /M.s
Kd [7]: 30.2 nM
K [8]: 3.5 ×10⁴ /M.s
Kd [9]: 20.9 nM

H-VEGEGEEEGEEY-NH2
K [2]: 0.2 ×10⁴ /M.s
K [3]: 5.8 ×10⁴ /M.s
K [4]: 0.7 ×10⁴ /M.s
K [5]: 4.1 ×10⁴ /M.s
K [6]: 1.6 ×10⁴ /M.s
Kd [7]: 24.2 nM
K [8]: 5 ×10⁴ /M.s
Kd [9]: 43.3 nM

H-GEFEEEAEEEVA-NH2
K [2]: 1.5 ×10⁴ /M.s
K [3]: 1 ×10⁴ /M.s
K [4]: 0.48 ×10⁴ /M.s
K [5]: 1.6 ×10⁴ /M.s
K [6]: 0.22 ×10⁴ /M.s
Kd [7]: 130 nM
K [8]: 1.2 ×10⁴ /M.s
Kd [9]: 265 nM

H-EAFEDEEEEIDG-NH2
K [2]: 3.1 ×10⁴ /M.s
K [3]: 0.9 ×10⁴ /M.s
K [4]: 3.7 ×10⁴ /M.s
K [5]: 3.4 ×10⁴ /M.s
K [6]: 3.1 ×10⁴ /M.s
Kd [7]: 211 nM
K [8]: 2.9 ×10⁴ /M.s
Kd [9]: 289 nM

H-SVEAEAEEGEEY-NH2
K [2]: 1.4 ×10⁴ /M.s
K [3]: 2.3 ×10⁴ /M.s
K [4]: 0.02 ×10⁴ /M.s
K [5]: 1.3 ×10⁴ /M.s
K [6]: 0.16 ×10⁴ /M.s
Kd [7]: 331 nM
K [8]: 1.9 ×10⁴ /M.s
Kd [9]: 31.9 nM
